# Values quoted from earlier work, collected in PubChem BioAssay AID1259409 (Chemical Carcinogenesis Research Information System (CCRIS), 2018).
# System: rodent chemically induced tumor inhibition, incidence and multiplicity
# Assay: CCRIS tumor inhibitor studies
smiles,measurement,setting,value
CC(C)(C)c1cc(O)ccc1O,"tumour outcome (control, treated, inhibition, significance)","Carcinogen: 7,12-DIMETHYLBENZ[A]ANTHRACENE, 57-97-6, Dose [Inhibitor]: 0.8% IN POWDERED DIET BEGINNING 1 WK POST CARCINOGEN DOSE FOR 51 WK (STUDY DURATION: 52 WK), Route [Inhibitor]: ORAL, Species: RAT, Strain/Sex: SPRAGUE-DAWLEY/FEMALE, Target Tissue: Type of Lesion: EAR DUCT: BENIGN TUMOR, Dose [Carcinogen]: 2.5 MG/100 G BW IN 0.5 ML SESAME OIL ONCE, Promoter: NONE USED","7/19 (37%), 5/16 (31%), 15%, not calculated"
same,"tumour outcome (control, treated, inhibition, significance)","Carcinogen: 7,12-DIMETHYLBENZ[A]ANTHRACENE, 57-97-6, Dose [Inhibitor]: 0.8% IN POWDERED DIET BEGINNING 1 WK POST CARCINOGEN DOSE FOR 51 WK (STUDY DURATION: 52 WK), Route [Inhibitor]: ORAL, Species: RAT, Strain/Sex: SPRAGUE-DAWLEY/FEMALE, Target Tissue: Type of Lesion: MAMMARY GLAND: CARCINOMA, Dose [Carcinogen]: 2.5 MG/100 G BW IN 0.5 ML SESAME OIL ONCE, Promoter: NONE USED","6/19 (32%), 5/16 (31%), 0.9%, not calculated"
same,"tumour outcome (control, treated, inhibition, significance)","Carcinogen: 7,12-DIMETHYLBENZ[A]ANTHRACENE, 57-97-6, Dose [Inhibitor]: 0.8% IN POWDERED DIET BEGINNING 1 WK POST CARCINOGEN DOSE FOR 51 WK (STUDY DURATION: 52 WK), Route [Inhibitor]: ORAL, Species: RAT, Strain/Sex: SPRAGUE-DAWLEY/FEMALE, Target Tissue: Type of Lesion: MAMMARY GLAND: FIBROADENOMA, Dose [Carcinogen]: 2.5 MG/100 G BW IN 0.5 ML SESAME OIL ONCE, Promoter: NONE USED","15/19 (79%), 4/16 (24%), 70%, p<0.001"
same,"tumour outcome (control, treated, inhibition, significance)","Carcinogen: BENZO[A]PYRENE, 50-32-8, Dose [Inhibitor]: 0.03 MMOL/G OF DIET DAILY STARTING 8 D BEFORE AND CONTINUING THROUGH 3 D AFTER CARCINOGEN TREATMENT FOLLOWED BY OBSERVAT, Route [Inhibitor]: ORAL, Species: MOUSE, Strain/Sex: ICR/FEMALE, Target Tissue: Type of Lesion: FORESTOMACH: NEOPLASM, Dose [Carcinogen]: 1 MG IN 0.2 ML CORN OIL 2/WK FOR 4 WK, Promoter: NONE USED","94%, 85%, 10%, not significant"
same,"tumour outcome (control, treated, inhibition, significance)","Carcinogen: N-METHYL-N'-NITRO-N-NITROSOGUANIDINE, 70-25-7, N-ETHYL-N-HYDROXYETHYLNITROSAMINE, 13147-25-6, N-METHYLBENZYLNITROSAM, Carcinogen: N-METHYL-N'-NITRO-N-NITROSOGUANIDINE, 70-25-7, N-ETHYL-N-HYDROXYETHYLNITROSAMINE, 13147-25-6, N-METHYLBENZYLNITROSAM, Dose [Inhibitor]: 0, 1% IN DIET FOR 36 WK (STUDY DURATION: 36 WK), Route [Inhibitor]: ORAL, Species: RAT, Strain/Sex: F344/MALE, Target Tissue: Type of Lesion: COLON: CARCINOMA, Dose [Carcinogen]: 100 MG/KG BW MNNG ONCE, 750 MG/KG BW EHEN ONCE, 0.5 MG/KG BW MBN TWICE, 40 MG/KG BW DMH 4 TIMES, 0.05% DBN IN DRINKING W, Promoter: NONE USED","10/18 (56%), 4/18 (22%), 61%, not calculated"
same,"tumour outcome (control, treated, inhibition, significance)","Carcinogen: N-METHYL-N'-NITRO-N-NITROSOGUANIDINE, 70-25-7, N-ETHYL-N-HYDROXYETHYLNITROSAMINE, 13147-25-6, N-METHYLBENZYLNITROSAM, Carcinogen: N-METHYL-N'-NITRO-N-NITROSOGUANIDINE, 70-25-7, N-ETHYL-N-HYDROXYETHYLNITROSAMINE, 13147-25-6, N-METHYLBENZYLNITROSAM, Dose [Inhibitor]: 0, 1% IN DIET FOR 36 WK (STUDY DURATION: 36 WK), Route [Inhibitor]: ORAL, Species: RAT, Strain/Sex: F344/MALE, Target Tissue: Type of Lesion: ESOPHAGUS: PAPILLOMA, Dose [Carcinogen]: 100 MG/KG BW MNNG ONCE, 750 MG/KG BW EHEN ONCE, 0.5 MG/KG BW MBN TWICE, 40 MG/KG BW DMH 4 TIMES, 0.05% DBN IN DRINKING W, Promoter: NONE USED","3/18 (17%), 15/18 (83%), -388%, p<0.001"
same,"tumour outcome (control, treated, inhibition, significance)","Carcinogen: N-METHYL-N'-NITRO-N-NITROSOGUANIDINE, 70-25-7, N-ETHYL-N-HYDROXYETHYLNITROSAMINE, 13147-25-6, N-METHYLBENZYLNITROSAM, Carcinogen: N-METHYL-N'-NITRO-N-NITROSOGUANIDINE, 70-25-7, N-ETHYL-N-HYDROXYETHYLNITROSAMINE, 13147-25-6, N-METHYLBENZYLNITROSAM, Dose [Inhibitor]: 0, 1% IN DIET FOR 36 WK (STUDY DURATION: 36 WK), Route [Inhibitor]: ORAL, Species: RAT, Strain/Sex: F344/MALE, Target Tissue: Type of Lesion: FORESTOMACH: PAPILLOMA, Dose [Carcinogen]: 100 MG/KG BW MNNG ONCE, 750 MG/KG BW EHEN ONCE, 0.5 MG/KG BW MBN TWICE, 40 MG/KG BW DMH 4 TIMES, 0.05% DBN IN DRINKING W, Promoter: NONE USED","6/18 (33%), 15/18 (83%), -151%, p<0.01"
same,"tumour outcome (control, treated, inhibition, significance)","Carcinogen: N-METHYL-N'-NITRO-N-NITROSOGUANIDINE, 70-25-7, N-ETHYL-N-HYDROXYETHYLNITROSAMINE, 13147-25-6, N-METHYLBENZYLNITROSAM, Carcinogen: N-METHYL-N'-NITRO-N-NITROSOGUANIDINE, 70-25-7, N-ETHYL-N-HYDROXYETHYLNITROSAMINE, 13147-25-6, N-METHYLBENZYLNITROSAM, Dose [Inhibitor]: 0, 1% IN DIET FOR 36 WK (STUDY DURATION: 36 WK), Route [Inhibitor]: ORAL, Species: RAT, Strain/Sex: F344/MALE, Target Tissue: Type of Lesion: KIDNEY: RENAL CELL TUMOR, Dose [Carcinogen]: 100 MG/KG BW MNNG ONCE, 750 MG/KG BW EHEN ONCE, 0.5 MG/KG BW MBN TWICE, 40 MG/KG BW DMH 4 TIMES, 0.05% DBN IN DRINKING W, Promoter: NONE USED","8/18 (44%), 5/18 (28%), 36%, not calculated"
Oc1cc(O)c2c(c1)O[C@H](c1ccc(O)c(O)c1)[C@H](O)C2,"tumour outcome (control, treated, inhibition, significance)","Carcinogen: 3-METHYLCHOLANTHRENE, 56-49-5, Dose [Inhibitor]: 0, 2 MG IN 0.1 ML STERILE SALINE 1/D FOR 5 CONSECUTIVE D BEGINNING 30 D POST CARCINOGEN TREATMENT (STUDY DURATION: 20 WK, Route [Inhibitor]: GAVAGE, Species: MOUSE, Strain/Sex: SWISS/MALE, Target Tissue: Type of Lesion: INJECTION SITE: SARCOMA, Dose [Carcinogen]: 745 NMOL IN 0.1 ML DMSO 1/D FOR 2 CONSECUTIVE D, Promoter: NONE USED","100%, 33%, 67%, p<0.01"
same,"tumour outcome (control, treated, inhibition, significance)","Carcinogen: 7,12-DIMETHYLBENZ[A]ANTHRACENE, 57-97-6, Dose [Inhibitor]: 0, 2 MG IN 0.1 ML DMSO 2/WK FOR 6 WK ADMINISTERED 30 MIN POST EACH PROMOTER DOSE (STUDY DURATION: 12 WK), Route [Inhibitor]: DERMAL, Species: MOUSE, Strain/Sex: SWISS/MALE, Target Tissue: Type of Lesion: SKIN: PAPILLOMA, Dose [Carcinogen]: 450 NMOL IN 0.1 ML DMSO ONCE, Promoter: CROTON OIL, 8001-28-3","17/30 (57%), 14/30 (47%), 18%, not significant"
OC1C(O)C(O)C(O)C(O)C1O (stereo not drawn),"tumour outcome (control, treated, inhibition, significance)","Carcinogen: 7,12-DIMETHYLBENZ[A]ANTHRACENE, 57-97-6, Dose [Inhibitor]: 0, 15 MILLIMOLAR IN DRINKING WATER FOR 47 WK BEGINNING 2 WK PRIOR TO CARCINOGEN DOSE (STUDY DURATION: 47 WK), Route [Inhibitor]: ORAL, Species: RAT, Strain/Sex: SPRAGUE-DAWLEY/FEMALE, Target Tissue: Type of Lesion: MAMMARY GLAND: TUMOR, Dose [Carcinogen]: 5 MG IN 1 ML CORN OIL ONCE, Promoter: NONE USED","37/40 (93%), 30/40 (75%), 19%, p<0.05"
CO[C@@H]1[C@H](OC(=O)NC(=O)CCl)CC[C@]2(CO2)[C@H]1[C@@]1(C)O[C@@H]1CC=C(C)C,"tumour outcome (control, treated, inhibition, significance)","Carcinogen: N-METHYL-N-NITROSOUREA, 684-93-5, Dose [Inhibitor]: 0, 1 UG/ML IN URINE 1/WK FOR 10 WK INSTILLED INTO HETEROTROPICALLY TRANSPLANTED BLADDER BEGINNING 21 WK POST CARCINOGEN, Route [Inhibitor]: INTRAVESICULAR, Species: RAT, Strain/Sex: F344/MALE, Target Tissue: Type of Lesion: BLADDER: TUMOR, Dose [Carcinogen]: 0.25 MG IN 0.5 ML OF 0.9% SALINE INSTILLED INTO HETEROTROPICALLY TRANSPLANTED BLADDER ONCE, Promoter: NONE USED","24/38 (63%), 9/24 (38%), 40%, p=0.08"
same,"tumour outcome (control, treated, inhibition, significance)","Carcinogen: N-METHYL-N-NITROSOUREA, 684-93-5, Dose [Inhibitor]: 0, 1 UG/ML IN URINE 1/WK FOR 27 WK INSTILLED INTO HETEROTROPICALLY TRANSPLANTED BLADDER BEGINNING 4 WK POST CARCINOGEN D, Route [Inhibitor]: INTRAVESICULAR, Species: RAT, Strain/Sex: F344/MALE, Target Tissue: Type of Lesion: BLADDER: TUMOR, Dose [Carcinogen]: 0.25 MG IN 0.5 ML OF 0.9% SALINE INSTILLED INTO HETEROTROPICALLY TRANSPLANTED BLADDER ONCE, Promoter: NONE USED","24/38 (63%), 14/37 (38%), 40%, p<0.05"
